{
  "source": "paper PMC9060465",
  "about": "(Proceedings of the National Academy of Sciences of the …, 2022)",
  "key": {"[1]": {"target": "T1, GLP-1R (Homo sapiens, UniProt P43220)", "test": "GLP-1R low density cAMP accumulation in HEK293 cells", "type": "cell-based", "design": "expressed in transfected cells; host or cells: HEK293", "protocol": "(§1) Fig. 4. […] (B) Ligand-induced GTPγS binding of Gαs was performed using the GIPR-expressing membranes. […] (C) Agonist-stimulated cAMP production was measured in human GIPR expressing HEK293 cells. […] (E) Ligand-induced GTPγS binding of Gαs was performed using the GLP-1R-expressing membranes. […] (F) Agonist-stimulated cAMP production was measured in human GLP-1R-expressing HEK293 cells. […] Data presented are representative of n ≥ 3 independent experiments. Summarized data are shown in SI Appendix, Table 2. log M; log Molar.\n(§2) We note that the albumin-binding propensity of fatty acid-modified peptides can confound a pharmacological comparison of molecules, given the common use of albumin and serum as nonspecific blocking agents in biological assays. Therefore, to obviate this, entirely albumin-free assays supplemented with bovine casein or bacitracin were used to prevent nonspecific binding ([10]). […]\n(§3) Middle Panel: The affinity (Ki) of ligands for the GLP-1R was […]\n(§4) Functional potency (EC50) and efficacy (% Top) of ligands to induce Gα s-GTPγS binding and cAMP accumulation in HEK293 cells expressing GLP-1R were determined. The equilibrium affinity (KD) of ligands for the immobilized ectodomain of the GLP-1R were quantified by surface plasmon resonance. […]\n(§5) SPR data were analyzed using T200 evaluation software (Cytiva). All data are presented as geometric means with SEM and n values according to established practices. ND, not determined. NA, not applicable."}, "[2]": {"target": "T1, GLP-1R", "test": "Ligand-induced GLP-1R internalization, SNAP-GLP-1R HEK293 cells", "type": "cell-based"}, "[3]": {"target": "T2, human GIPR (Homo sapiens, UniProt P48546)", "T2 construct": "expressed in transfected cells; host or cells: HEK293", "T2 sequence (P48546 22-466)": "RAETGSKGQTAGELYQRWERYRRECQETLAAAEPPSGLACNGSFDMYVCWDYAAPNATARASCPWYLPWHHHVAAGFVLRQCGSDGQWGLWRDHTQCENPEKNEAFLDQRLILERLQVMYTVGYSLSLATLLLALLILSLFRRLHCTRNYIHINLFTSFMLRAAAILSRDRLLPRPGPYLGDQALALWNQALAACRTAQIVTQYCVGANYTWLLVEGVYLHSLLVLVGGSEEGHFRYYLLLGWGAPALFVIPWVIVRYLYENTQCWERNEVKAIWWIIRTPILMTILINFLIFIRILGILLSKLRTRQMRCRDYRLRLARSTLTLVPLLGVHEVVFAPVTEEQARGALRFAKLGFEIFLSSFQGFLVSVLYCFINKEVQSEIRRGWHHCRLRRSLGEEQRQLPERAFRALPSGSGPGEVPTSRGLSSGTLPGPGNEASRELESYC", "test": "GIPR low density cAMP accumulation in HEK293 cells", "type": "cell-based", "protocol": "as §1\n(§6) We note that the albumin-binding propensity of fatty acid-modified peptides can confound a pharmacological comparison of molecules, given the common use of albumin and serum as nonspecific blocking agents in biological assays. Therefore, to obviate this, entirely albumin-free assays supplemented with bovine casein or bacitracin were used to prevent nonspecific binding ([10]).\n(§7) Functional potency (EC50)\n(§8) and efficacy (% Top) of ligands to induce Gα s -GTPγS binding and cAMP accumulation in HEK293 cells expressing GIPR were determined. The equilibrium affinity (KD) of\n(§9) ligands for the immobilized ectodomain of the GIPR were quantified by surface plasmon resonance. […]\n(§10) SPR data were analyzed using T200 evaluation software (Cytiva). All data are presented as geometric means with SEM and n values\n(§11) according to established practices. ND, not determined. NA, not applicable."}, "[4]": {"target": "T1, GLP-1R", "test": "GRK2 recruitment to the GLP-1R, NanoBRET", "type": "cell-based", "design": "expressed in transfected cells; host or cells: freestyle HEK cells", "protocol": "After 48 h, transfected cells were incubated in phosphate-buffered saline (PBS) containing 0.1% (wt/vol) bovine casein and varying concentrations of the ligands. […]\nThe potency (EC50) and efficacy (% Top) for ligands to induce GLP-1R Internalization were\ndetermined using diffusion-enhanced resonance energy transfer.\nrelative efficacy for NanoBRET assays. SPR data were analyzed using T200 evaluation software (Cytiva). All data are presented as geometric means with SEM and n values\nas §11"}, "[5]": {"target": "T1, GLP-1R", "test": "GLP-1R Gαs [35S]GTPγS binding, GLP-1R-expressing membranes", "type": "biochemical", "design": "expressed in transfected cells; host or cells: HEK293", "protocol": "as §1, §2, §3, §4, §5"}, "[6]": {"target": "T1, GLP-1R", "test": "β-arrestin 1 recruitment to the GLP-1R, NanoBRET", "type": "cell-based", "design": "expressed in transfected cells", "conditions": "efficacy (% Top), relative efficacy to GLP-1; (SEM)", "protocol": "Functional potency (EC50) […]\nand efficacy (% Top) of ligands to induce Gα s -GTPγS binding and cAMP accumulation in HEK293 cells expressing GIPR were determined. The equilibrium affinity (KD) of ligands for the immobilized ectodomain of the GIPR were quantified by surface plasmon resonance. Middle Panel: The affinity (Ki) of ligands for the GLP-1R was […]\nas §4\nrecruitment to the GLP-1R were determined using the NanoBRET approach. The potency (EC50) and efficacy (% Top) for ligands to induce GLP-1R Internalization were determined using diffusion-enhanced resonance energy transfer. […]\nrelative efficacy for NanoBRET assays. SPR data were analyzed using T200 evaluation software (Cytiva). All data are presented as geometric means with SEM and n values according to established practices. ND, not determined. NA, not applicable."}, "[7]": {"target": "T2, human GIPR", "test": "GIPR Gαs [35S]GTPγS binding, GIPR-expressing membranes", "type": "biochemical", "protocol": "as §1, §6, §7, §8, §9, §10, §11"}, "[8]": {"conditions": "efficacy (% Top), normalized to GLP-1(7-36), (SEM)"}, "[9]": {"conditions": "efficacy (% Top), normalized to GIP(1-42), (SEM)"}},
  "note": "Where a SMILES comes first, the peptide text is derived from it. [ ]: non-standard residue; d: D form. Aib = CC(C)(N)C(=O)O",
  "data": [
    {"compound": "CC[C@H](C)[C@H](NC(=O)[C@H](CC(C)C)NC(=O)[C@H](Cc1c[nH]c2ccccc12)NC(=O)[C@H](CCC(N)=O)NC(=O)[C@@H](NC(=O)[C@H](Cc1ccccc1)NC(=O)[C@H](C)NC(=O)[C@H](CCCCN)NC(=O)[C@H](CCC(N)=O)NC(=O)[C@H](C)NC(=O)[C@@H](NC(=O)[C@H](CCCCN)NC(=O)[C@H](CC(=O)O)NC(=O)[C@H](CC(C)C)NC(=O)C(C)(C)NC(=O)[C@@H](NC(=O)[C@H](CO)NC(=O)[C@H](Cc1ccc(O)cc1)NC(=O)[C@H](CC(=O)O)NC(=O)[C@H](CO)NC(=O)[C@@H](NC(=O)[C@H](Cc1ccccc1)NC(=O)[C@@H](NC(=O)CNC(=O)[C@H](CCC(=O)O)NC(=O)C(C)(C)NC(=O)[C@@H](N)Cc1c[nH]cn1)[C@@H](C)O)[C@@H](C)O)[C@@H](C)CC)[C@@H](C)CC)C(C)C)C(=O)N[C@@H](C)C(=O)NCC(=O)NCC(=O)N1CCC[C@H]1C(=O)N[C@@H](CO)C(=O)N[C@@H](CO)C(=O)NCC(=O)N[C@@H](C)C(=O)N1CCC[C@H]1C(=O)N1CCC[C@H]1C(=O)N1CCC[C@H]1C(=O)N[C@@H](CO)C(N)=O", "note": "[Tzp ∆C20,Y1H] (H-H[Aib]EGTFTSDYSI[Aib]LDKIAQKAFVQWLIAGGPSSGAPPPS-NH2)", "values": [
      {"measurement": "EC50", "setting": "[1]; cAMP accumulation, HEK293 cells expressing GLP-1R, albumin-free, geometric mean (SEM, n)", "value": 163, "unit": "pM"},
      {"measurement": "GLP-1R Low Density cAMP Top", "setting": "[1]; [8]", "value": "111 (5) %"},
      {"measurement": "EC50", "setting": "[2]; diffusion-enhanced resonance energy transfer, SNAP-GLP-1R HEK293 cells, 37 °C, geometric mean (SEM, n)", "value": 2130, "unit": "pM"},
      {"measurement": "GLP-1R Internalization Top", "setting": "[2]; efficacy (% Top), percent internalization compared to maximal GLP-1, (SEM)", "value": "101 (6) %"},
      {"measurement": "EC50", "setting": "[3]; cAMP accumulation, HEK293 cells expressing GIPR, albumin-free, geometric mean (SEM, n)", "value": 682, "unit": "pM"},
      {"measurement": "GIPR Low Density cAMP Top", "setting": "[3]; [9]", "value": "80.9 (3.4) %"},
      {"measurement": "EC50", "setting": "[4]; NanoBRET, transfected freestyle HEK cells, PBS with 0.1% casein, geometric mean (SEM, n)", "value": 3080, "unit": "pM"},
      {"measurement": "GLP-1R GRK2 Recruitment Top", "setting": "[4]; efficacy (% Top), relative to maximal GLP-1, (SEM)", "value": "84.2 (1.5 ) %"},
      {"measurement": "EC50", "setting": "[5]; Gαs-GTPγS binding, GLP-1R-expressing membranes, albumin-free, geometric mean (SEM, n), read-out: GLP-1R GTPγS Recruitment EC50", "value": 239, "unit": "pM"},
      {"measurement": "GLP-1R GTPγS Recruitment Top", "setting": "[5]; [8]", "value": "88.9 (3.9) %"},
      {"measurement": "GLP-1R β-Arr1 Recruitment Top", "setting": "[6]", "value": "74.6 (2.2) %"},
      {"measurement": "EC50", "setting": "[7]; Gαs-GTPγS binding, GIPR-expressing membranes, albumin-free, geometric mean (SEM, n), read-out: GIPR GTPγS Recruitment EC50", "value": 273, "unit": "pM"},
      {"measurement": "GIPR GTPγS Recruitment Top", "setting": "[7]; [9]", "value": "31.4 (6.6) %"}
    ]},
    {"compound": "semaglutide [reference compound]", "values": [
      {"measurement": "efficacy at inducing internalization of the GLP-1R, in words", "setting": "[2]; SNAP-tagged receptor in HEK293 cells, representative of n≥3", "value": "equally efficacious"}
    ]}
  ]
}
